# In US9884842B2, “Combretastatin analogs” (The Board of Trustees of the University of Arkansas, priority 2013, dated 2018):
# Tests used:
# SNB-75 = test: NCI growth inhibition and cytotoxicity screen, CNS Cancer panel; settings: Homo sapiens; for GI50: SNB-75; for CC50: SNB-75, read-out: LC50
# T-47D = test: NCI growth inhibition and cytotoxicity screen, Breast Cancer panel; settings: Homo sapiens, T47D; for CC50: read-out: LC50
# HCT-15 = test: NCI growth inhibition and cytotoxicity screen, Colon Cancer panel; settings: Homo sapiens; for GI50: HCT-15; for CC50: HCT-15, read-out: LC50
# OVCAR-5 = test: NCI growth inhibition and cytotoxicity screen, Ovarian Cancer panel; settings: Homo sapiens; for GI50: OVCAR-5; for CC50: OVCAR-5, read-out: LC50
# HOP-92 = test: NCI growth inhibition and cytotoxicity screen, Lung Cancer panel; settings: Homo sapiens; for GI50: HOP-92; for CC50: HOP-92, read-out: LC50
# CAKI-1 = test: NCI growth inhibition and cytotoxicity screen, Renal Cancer panel; settings: Homo sapiens; for GI50: CAKI-1; for CC50: CAKI-1, read-out: LC50
# SK-OV-3 = test: NCI growth inhibition and cytotoxicity screen, Ovarian Cancer panel; settings: Homo sapiens; for GI50: SK-OV-3; for CC50: SK-OV-3, read-out: LC50
# TK-10 = test: NCI growth inhibition and cytotoxicity screen, Renal Cancer panel; settings: Homo sapiens; for GI50: TK-10; for CC50: TK-10, read-out: LC50
# SF-268 = test: NCI growth inhibition and cytotoxicity screen, CNS Cancer panel; settings: Homo sapiens; for GI50: SF-268; for CC50: SF-268, read-out: LC50
# NCI/ADR-RES = test: NCI growth inhibition and cytotoxicity screen, Ovarian Cancer panel; settings: Homo sapiens; for CC50: read-out: LC50
# SNB-19 = test: NCI growth inhibition and cytotoxicity screen, CNS Cancer panel; settings: Homo sapiens; for GI50: SNB-19; for CC50: SNB-19, read-out: LC50
# K-562 = test: NCI growth inhibition and cytotoxicity screen, Leukemia panel; settings: Homo sapiens; for GI50: K562; for CC50: K562, read-out: LC50
# NCI-H322M = test: NCI growth inhibition and cytotoxicity screen, Lung Cancer panel; settings: Homo sapiens; for CC50: read-out: LC50
# HCC-2998 = test: NCI growth inhibition and cytotoxicity screen, Colon Cancer panel; settings: Homo sapiens; for GI50: HCC 2998; for CC50: HCC 2998, read-out: LC50
# NCI-H23 = test: NCI growth inhibition and cytotoxicity screen, Lung Cancer panel; settings: Homo sapiens; for GI50: NCI-H23; for CC50: NCI-H23, read-out: LC50
# UACC-62 = test: NCI growth inhibition and cytotoxicity screen, Melanoma panel; settings: Homo sapiens; for GI50: UACC-62; for CC50: UACC-62, read-out: LC50
# OVCAR-3 = test: cells; settings: Homo sapiens; for GI50: OVCAR-3; for CC50: OVCAR-3, read-out: LC50
# MCF7 = test: NCI growth inhibition and cytotoxicity screen, Breast Cancer panel; settings: Homo sapiens; for GI50: MCF7; for CC50: MCF7, read-out: LC50
# UO-31 = test: NCI growth inhibition and cytotoxicity screen, Renal Cancer panel; settings: Homo sapiens; for CC50: UO-31, read-out: LC50
# MDA-MB-435 = test: NCI growth inhibition and cytotoxicity screen, Melanoma panel; settings: Homo sapiens; for GI50: MDA-MB-435; for CC50: MDA-MB-435, read-out: LC50
# M14 = test: as above; settings: Homo sapiens; for GI50: M14; for CC50: M14, read-out: LC50
# HL-60(TB) = test: cells; settings: Homo sapiens; for GI50: HL-60; for CC50: HL-60, read-out: LC50
# U251 = test: NCI growth inhibition and cytotoxicity screen, CNS Cancer panel; settings: Homo sapiens; for GI50: U-251; for CC50: U-251, read-out: LC50
# 786-0 = test: NCI growth inhibition and cytotoxicity screen, Renal Cancer panel; settings: Homo sapiens; for GI50: 786-0; for CC50: 786-0, read-out: LC50
# MOLT-4 = test: NCI growth inhibition and cytotoxicity screen, Leukemia panel; settings: Homo sapiens; for GI50: MOLT-4; for CC50: MOLT-4, read-out: LC50
# OVCAR-4 = test: NCI growth inhibition and cytotoxicity screen, Ovarian Cancer panel; settings: Homo sapiens; for GI50: OVCAR-4; for CC50: OVCAR-4, read-out: LC50
# COLO 205 = test: NCI growth inhibition and cytotoxicity screen, Colon Cancer panel; settings: Homo sapiens; for CC50: COLO 205, read-out: LC50
# IGROV1 = test: NCI growth inhibition and cytotoxicity screen, Ovarian Cancer panel; settings: Homo sapiens; for GI50: IGROV-1; for CC50: IGROV-1, read-out: LC50
# HS 578T = test: NCI growth inhibition and cytotoxicity screen, Breast Cancer panel; settings: Homo sapiens; for CC50: read-out: LC50
# NCI-H460 = test: NCI growth inhibition and cytotoxicity screen, Lung Cancer panel; settings: Homo sapiens; for GI50: NCI-H460; for CC50: NCI-H460, read-out: LC50
# MDA-MB-231/ATCC = test: NCI growth inhibition and cytotoxicity screen, Breast Cancer panel; settings: Homo sapiens; for GI50: MDA-MB-231; for CC50: MDA-MB-231, read-out: LC50
smiles,measurement,setting,value
"COc1cc(/C(C#N)=C/c2cnc3ccccc3c2)cc(OC)c1OC [PNR-5-10, (Z)-3-(quinolin-3-yl)-2-(3,4,5-trimethoxyphenyl)acrylonitrile]",GI50,SNB-75,1490 nM
same,CC50,SNB-75,> 100000 nM
same,GI50,T-47D,9540 nM
same,CC50,T-47D,> 100000 nM
same,GI50,HCT-15,1080 nM
same,CC50,HCT-15,> 100000 nM
same,GI50,OVCAR-5,3940 nM
same,CC50,OVCAR-5,> 100000 nM
same,GI50,HOP-92,403 nM
same,CC50,HOP-92,> 100000 nM
same,GI50,CAKI-1,346 nM
same,CC50,CAKI-1,> 100000 nM
same,GI50,SK-OV-3,1340 nM
same,CC50,SK-OV-3,> 100000 nM
same,GI50,TK-10,2550 nM
same,CC50,TK-10,> 100000 nM
same,GI50,SF-268,9170 nM
same,CC50,SF-268,> 100000 nM
same,GI50,NCI/ADR-RES,343 nM
same,CC50,NCI/ADR-RES,> 100000 nM
same,GI50,SNB-19,5230 nM
same,CC50,SNB-19,> 100000 nM
same,GI50,K-562,444 nM
same,CC50,K-562,> 100000 nM
same,GI50,NCI-H322M,27400 nM
same,CC50,NCI-H322M,> 100000 nM
same,GI50,HCC-2998,2010 nM
same,CC50,HCC-2998,> 100000 nM
same,GI50,NCI-H23,2930 nM
same,CC50,NCI-H23,> 100000 nM
same,GI50,UACC-62,478 nM
same,CC50,UACC-62,> 100000 nM
same,GI50,OVCAR-3,263 nM
same,CC50,OVCAR-3,> 100000 nM
same,GI50,MCF7,429 nM
same,CC50,MCF7,> 100000 nM
same,GI50,UO-31; UO-31,580 nM
same,CC50,UO-31,> 100000 nM
same,GI50,MDA-MB-435,227 nM
same,CC50,MDA-MB-435,> 100000 nM
same,GI50,M14,540 nM
same,CC50,M14,> 100000 nM
same,GI50,HL-60(TB),329000 nM
same,CC50,HL-60(TB),> 100000 nM
same,GI50,U251,1700 nM
same,CC50,U251,> 100000 nM
same,GI50,786-0,6290 nM
same,CC50,786-0,> 100000 nM
same,GI50,MOLT-4,3200 nM
same,CC50,MOLT-4,> 100000 nM
same,GI50,OVCAR-4,13800 nM
same,CC50,OVCAR-4,> 100000 nM
same,CC50,COLO 205,9440 nM
same,GI50,IGROV1,3150 nM
same,CC50,IGROV1,> 100000 nM
same,GI50,HS 578T,1310 nM
same,CC50,HS 578T,> 100000 nM
same,GI50,NCI-H460,2050 nM
same,CC50,NCI-H460,> 100000 nM
same,GI50,MDA-MB-231/ATCC,2830 nM
same,CC50,MDA-MB-231/ATCC,> 100000 nM
"COc1cc(OC)cc(/C(C#N)=C/c2cnc3ccccc3c2)c1 [PNR-4-85, (Z)-3-(quinolin-3-yl)-2-(3,5-dimethoxyphenyl)acrylonitrile]",GI50,SNB-75,224 nM
same,CC50,SNB-75,> 100000 nM
same,GI50,T-47D,628 nM
same,CC50,T-47D,> 100000 nM
same,GI50,HCT-15,455 nM
same,CC50,HCT-15,> 100000 nM
same,GI50,OVCAR-5,587 nM
same,CC50,OVCAR-5,> 100000 nM
same,GI50,HOP-92,3090 nM
same,CC50,HOP-92,> 100000 nM
same,GI50,CAKI-1,223 nM
same,CC50,CAKI-1,> 100000 nM
same,GI50,SK-OV-3,576 nM
same,CC50,SK-OV-3,> 100000 nM
same,GI50,TK-10,17700 nM
same,CC50,TK-10,> 100000 nM
same,GI50,SF-268,654 nM
same,CC50,SF-268,> 100000 nM
same,GI50,NCI/ADR-RES,224 nM
same,CC50,NCI/ADR-RES,> 100000 nM
same,GI50,SNB-19,614 nM
same,CC50,SNB-19,> 100000 nM
same,GI50,K-562,243 nM
same,CC50,K-562,> 100000 nM
same,GI50,NCI-H322M,903 nM
same,CC50,NCI-H322M,> 100000 nM
same,GI50,HCC-2998,1450 nM
same,CC50,HCC-2998,> 100000 nM
same,GI50,NCI-H23,747 nM
same,CC50,NCI-H23,> 100000 nM
same,GI50,UACC-62,357 nM
same,CC50,UACC-62,> 100000 nM
same,GI50,OVCAR-3,279 nM
same,CC50,OVCAR-3,> 100000 nM
same,GI50,MCF7,333 nM
same,CC50,MCF7,> 100000 nM
same,CC50,UO-31,> 100000 nM
same,GI50,MDA-MB-435,53 nM
same,CC50,MDA-MB-435,> 100000 nM
same,GI50,M14,310 nM
same,CC50,M14,> 100000 nM
same,GI50,HL-60(TB),234 nM
same,CC50,HL-60(TB),> 100000 nM
same,GI50,U251,374 nM
same,CC50,U251,> 100000 nM
same,GI50,786-0,484 nM
same,CC50,786-0,> 100000 nM
same,GI50,MOLT-4,378 nM
same,CC50,MOLT-4,> 100000 nM
same,GI50,OVCAR-4,1730 nM
same,CC50,OVCAR-4,> 100000 nM
same,GI50,COLO 205; COLO 205,398 nM
same,CC50,COLO 205,89900 nM
same,GI50,IGROV1,3500 nM
same,CC50,IGROV1,> 100000 nM
same,GI50,HS 578T,715 nM
same,CC50,HS 578T,> 100000 nM
same,GI50,NCI-H460,362 nM
same,CC50,NCI-H460,> 100000 nM
same,GI50,MDA-MB-231/ATCC,1150 nM
same,CC50,MDA-MB-231/ATCC,> 100000 nM
